Patent US11547681B2, “N-acylethanolamide derivatives and uses thereof” (ELIEM THERAPEUTICS, INC., priority 2016, dated 2023)
Values belong to the compound of their own block, whether it stands above or below them.

Assay: in vitro
Settings: for Measured concentration of analyte PEA, 0 min / Measured concentration of analyte PEA, 10 min / Measured concentration of analyte PEA, 20 min / Measured concentration of analyte PEA, 30 min / Measured concentration of analyte PEA, 60 min / % Remaining of Initial, 0 min / % Remaining of Initial, 10 min / % Remaining of Initial, 20 min / % Remaining of Initial, 30 min / % Remaining of Initial, 60 min / Concentration, analyte PEA / % Remaining of Initial (n = 1): 1 μM; for % Remaining of Initial, 0 min / % Remaining of Initial, 10 min / % Remaining of Initial, 20 min / % Remaining of Initial, 30 min / % Remaining of Initial, 60 min / microsomal CLint at 1 μM / half-life at 1 μM / % Remaining of Initial (n = 1): microsomes
Protocol: The reaction mixture, minus cofactors, was prepared as described below. The test article was added into the reaction mixture at a final concentration of 1 μM. […] An aliquot of the reaction mixture (without cofactor) was equilibrated in a shaking water bath at 37° C. for 3 minutes. The reaction was initiated by the addition of cofactor, and the mixture was incubated in a shaking water bath at 37° C. Aliquots (100 μL) were withdrawn at 0, 10, 20, 30, and 60 minutes. All samples were immediately combined with 400 μL of ice-cold 50/50 acetonitrile/H2O containing 0.1% formic acid and internal standard to terminate the reaction. The samples were then mixed and centrifuged to precipitate proteins. Calibration standards were prepared in matched matrix. All samples and standards were assayed by LC-MS/MS using electrospray ionization for both the dosed prodrug I-9 and the expected drug (PEA). Analytical conditions are outlined in Appendix 4-1. The test article concentration at each time point was compared to the test article concentration at time 0 to determine the percent remaining at each time point. Half-lives were calculated using GraphPad software, fitting to a single-phase exponential decay equation.
Reaction mixture, minus cofactors, was prepared as described below. Test article was added into the reaction mixture at a final concentration of 1 μM. […] An aliquot of the reaction mixture (without cofactor) was equilibrated in a shaking water bath at 37° C. for 3 minutes. The reaction was initiated by the addition of cofactor, and the mixture was incubated in a shaking water bath at 37° C. Aliquots (100 μL) were withdrawn at 0, 10, 20, 30, and 60 minutes. Test article samples were immediately combined with 300 μL of ice-cold acetonitrile containing 1% formic acid. Control samples were immediately combined with 400 μL of ice-cold 50/50 acetonitrile (ACN)/dH2O containing 0.1% formic acid and internal standard to terminate the reaction. Samples were then mixed and centrifuged to precipitate proteins. Calibration standards were prepared in matched matrix. Samples and standards were assayed by LC-MS/MS using electrospray ionization for both dosed prodrug and expected drug (PEA). Analytical conditions are outlined in Appendix 8-1. Test article concentration at each time point was compared to test article concentration at time 0 to determine the percent remaining at each time point. Half-lives were calculated using GraphPad software, fitting to a single-phase exponential decay equation.
Reaction mixture, minus cofactors, was prepared as described below. Test article was added into the reaction mixture at a final concentration of 1 μM. […] An aliquot of the reaction mixture (without cofactor) was equilibrated in a shaking water bath at 37° C. for 5 minutes. Reaction was initiated by the addition of cofactor, and the mixture was incubated in a shaking water bath at 37° C. Aliquots (100 μL) were withdrawn at 0, 10, 20, 30, and 60 minutes. Test article samples were immediately combined with 300 μL of ice-cold acetonitrile containing 1% formic acid. Control samples were immediately combined with 400 μL of ice-cold 50/50 acetonitrile (ACN)/dH2O containing 0.1% formic acid and internal standard to terminate the reaction. Samples were then mixed and centrifuged to precipitate proteins. Calibration standards were prepared in matched matrix. Samples and standards were assayed by LC-MS/MS using electrospray ionization for both the dosed prodrug and the expected drug (PEA). Analytical conditions are outlined in Appendix 10-1. Test article concentration at each time point was compared to the test article concentration at time 0 to determine the percent remaining at each time point. Half-lives were calculated using GraphPad software, fitting to a single-phase exponential decay equation.
Reaction mixture, minus cofactors, was prepared as described below. Test article was added into the reaction mixture at a final concentration of 1 μM.

[1] = male, Sprague-Dawley, rat, 0 min
[2] = male, Sprague-Dawley, rat, 10 min
[3] = male, Sprague-Dawley, rat, 20 min
[4] = male, Sprague-Dawley, rat, 30 min
[5] = male, Sprague-Dawley, rat, 60 min
[6] = male, Sprague-Dawley, rat, 0.5 h

- Measured concentration of analyte PEA, 0 min (both, human, 0 min): 0.046 µM
- Measured concentration of analyte PEA, 10 min (both, human, 10 min): 0.29 µM
- Measured concentration of analyte PEA, 20 min (both, human, 20 min): 0.20 µM
- Measured concentration of analyte PEA, 30 min (both, human, 30 min): 0.16 µM
- Measured concentration of analyte PEA, 60 min (both, human, 60 min): 0.057 µM
- % Remaining of Initial, 0 min (both, human, 0 h): 100%
- % Remaining of Initial, 10 min (both, human, 10 min): 3.1%
- % Remaining of Initial, 20 min (both, human, 20 min): <1.0%
- % Remaining of Initial, 30 min (both, human, 0.5 h): <1.0%
- % Remaining of Initial, 60 min (both, human, 1 h): <1.0%
- microsomal CLint at 1 μM (both, human): 696 µL/min/mg
- half-life at 1 μM (both, human): 2 min
- Measured concentration of analyte PEA, 0 min [1]: 0.023 µM
- Measured concentration of analyte PEA, 10 min [2]: 0.048 µM
- Measured concentration of analyte PEA, 20 min [3]: 0.031 µM
- Measured concentration of analyte PEA, 30 min [4]: 0.0086 µM
- Measured concentration of analyte PEA, 60 min [5]: 0 µM
- % Remaining of Initial, 0 min (male, Sprague-Dawley, rat, 0 h): 100%
- % Remaining of Initial, 10 min [2]: 3.3%
- % Remaining of Initial, 20 min [3]: <1.0%
- % Remaining of Initial, 30 min [6]: <1.0%
- % Remaining of Initial, 60 min (male, Sprague-Dawley, rat, 1 h): <1.0%
- microsomal CLint at 1 μM (male, Sprague-Dawley, rat): 681 µL/min/mg
- half-life at 1 μM (male, Sprague-Dawley, rat): 2 min
Structure (SMILES): CCCCCCCCCCCCCCCC(=O)NCCOC(=O)CCC(=O)OCC(COC(=O)CCC)OC(=O)CCC (stereo not drawn) [Compound I-11]

- Concentration, analyte PEA (both, human, 0 min): 0 nM
- Concentration, analyte PEA (both, human, 10 min): 0 nM
- Concentration, analyte PEA (both, human, 20 min): 0 nM
- Concentration, analyte PEA (both, human, 30 min): 0 nM
- Concentration, analyte PEA (both, human, 60 min): 0 nM
- % Remaining of Initial (n = 1) (both, human, 0 h): 100%
- % Remaining of Initial (n = 1) (both, human, 10 min): 79%
- % Remaining of Initial (n = 1) (both, human, 20 min): 73%
- % Remaining of Initial (n = 1) (both, human, 0.5 h): 60%
- % Remaining of Initial (n = 1) (both, human, 1 h): 42%
- microsomal CLint at 1 μM (both, human): 29.6 µL/min/mg
- half-life at 1 μM (both, human): 47 min
- Concentration, analyte PEA [1]: 0 nM
- Concentration, analyte PEA [2]: 0 nM
- Concentration, analyte PEA [3]: 13 nM
- Concentration, analyte PEA [4]: 13 nM
- Concentration, analyte PEA [5]: 0 nM
- % Remaining of Initial (n = 1) (male, Sprague-Dawley, rat, 0 h): 100%
- % Remaining of Initial (n = 1) [2]: 91%
- % Remaining of Initial (n = 1) [3]: 72%
- % Remaining of Initial (n = 1) [6]: 60%
- % Remaining of Initial (n = 1) (male, Sprague-Dawley, rat, 1 h): 38%
- microsomal CLint at 1 μM (male, Sprague-Dawley, rat): 33.6 µL/min/mg
- half-life at 1 μM (male, Sprague-Dawley, rat): 41 min
Structure (SMILES): CCCCC/C=C\C/C=C\CCCCCCCC(=O)OCC(COC(=O)CCC(=O)OCCNC(=O)CCCCCCCCCCCCCCC)OC(=O)CCCCCCC/C=C\C/C=C\CCCCC (stereo not drawn) [Compound I-13]
